Laboratory results from US20040097567A1, “Pharmaceutical composition” (priority 2001, published 2004).

Tested on: diabetic rats, n0STZ
Experiment: Oral glucose tolerance test (OGTT) in n0STZ diabetic rats: plasmatic glycaemia and insulinaemia
Assay type: in vivo, rat
Settings: for Plasmatic insulin / Plasmatic glucose / Plasmatic glucose AUC / Plasmatic insulin AUC: OGTT glucose 2 g/kg, products given 2 hours before, Compound A 12.5 mg/kg, glibenclamide 2 mg/kg; for Plasmatic glucose AUC / Plasmatic insulin AUC: AUC over 0-120 min; for effect on carbohydrate tolerance: acute administration, 12.5 mg/kg compound A or 2 mg/kg glibenclamide
Description: Diabetes is induced in male rats (source: Iffa Credo) by intravenous administration of streptozotocin on the day of birth.
The rats are selected according to the criterion of hyperglycaemia 170±15 mg/dl.
The animals are grouped into 5 rats per batch and divided into 4 batches
The products are administered 2 hours before the glucose tolerance test, at a rate of 12.5 mg/kg for 4-[2-(2,4-dioxothiazolidin-5-yl)ethoxy]benzonitrile, 2 mg/kg for glibenclamide and the combination of the 2 products at the doses used in monotherapy.
The glucose tolerance test (OGTT) is performed on the conscious animal and consists in administering glucose at a rate of 2 g/kg. The plasmatic glucose clearance is analysed after this glucose load, over 2 hours (0-10-20-30-45-60-90 and 120 min).
In addition to plasmatic glycaemia, insulinaemia is also determined.

| SMILES | Plasmatic insulin (0 min) [μU/ml] | Plasmatic glucose (0 min, 5 rats/batch) [mg/dL] | Plasmatic glucose (10 min) [mg/dL] | Plasmatic insulin (10 min) [μU/ml] | Plasmatic glucose (20 min) [mg/dL] | Plasmatic insulin (20 min) [μU/ml] | Plasmatic glucose (30 min) [mg/dL] | Plasmatic insulin (30 min) [μU/ml] | Plasmatic glucose (45 min) [mg/dL] | Plasmatic insulin (45 min) [μU/ml] | Plasmatic glucose (60 min) [mg/dL] | Plasmatic insulin (60 min) [μU/ml] | Plasmatic glucose (90 min) [mg/dL] | Plasmatic insulin (90 min) [μU/ml] | Plasmatic glucose (120 min) [mg/dL] | Plasmatic insulin (120 min) [μU/ml] | Plasmatic glucose AUC | Plasmatic insulin AUC | effect on carbohydrate tolerance (n0STZ rats, OGTT) | other results |
| --- | --- | --- | --- | --- | --- | --- | --- | --- | --- | --- | --- | --- | --- | --- | --- | --- | --- | --- | --- | --- |
| N#Cc1ccc(OCCC2SC(=O)NC2=O)cc1 (stereo not shown) [Compound A, 4-[2-(2,4-dioxothiazolidin-5-yl)ethoxy]benzonitrile] | 47.2 | 160 | 321 | 100.8 | 381 | 89.6 | 418 | 84.5 | 424 | 74.6 | 447 | 77 | 419 | 93.8 | 378 | 101.5 | 47702.5 | 10384.25 | little or no effect | decrease observed (carbohydrate tolerance, glucose curve vs control) (acute 12.5 mg/kg, n0STZ rats, OGTT): 6% |
| COc1ccc(Cl)cc1C(=O)NCCc1ccc(S(=O)(=O)NC(=O)NC2CCCCC2)cc1 [Glibenclamide] | 84.2 | 138 | 312 | 116.9 | 407 | 129.4 | 470 | 105.8 | 520 | 100 | 513 | 88.3 | 507 | 92.5 | 448 | 97.5 | 55027.5 | 11930.75 | little or no effect | increase observed (carbohydrate tolerance, glucose curve vs control) (acute 2 mg/kg, n0STZ rats, OGTT): 6% |
